Data: patent US12403141B2, “Deuterated MK2 pathway inhibitors and methods of using the same” (ACLARIS THERAPEUTICS, INC., priority 2019, dated 2025)

Key:
human hepatocytes = experiment: In vitro metabolite profile in human hepatocytes; assay type: in vitro ADME; design: key to UV % at 280-290 nm or observed (+ or --), metabolite M387 (O-dealkylation) / UV % at 280-290 nm or observed (+ or --), metabolite M532b (Hydroxylation) / UV % at 280-290 nm or observed (+ or --), metabolite M532e (Hydroxylation) / UV % at 280-290 nm or observed (+ or --), metabolite M563 (O-dealkylation + Glucuronidation) / UV % at 280-290 nm or observed (+ or --), metabolite M530b (Hydroxylation) / UV % at 280-290 nm or observed (+ or --), metabolite M530e (Hydroxylation): +: only detected by MS; --: not detected or trace; settings: 10 μM; for UV % at 280-290 nm, Parent-T0 min: T0 min (normalized as 100%)
Description: (§1) Briefly, each test compound (final concentration of 10 μM containing 0.1% DMSO) was incubated with rat, dog, minipig, monkey, or human hepatocytes (final viable cell density of 1×10^6 cells/mL) at 37° C. with 5% CO2 in HI hepatocyte maintenance media (BIOIVT; Catalog #Z99009) for 120 minutes. Reactions were initiated by combining 200 μL of pre-warmed 2× dosing solution containing 20 μM test compound and 0.2% DMSO in HI maintenance media with 200 μL of pre-warmed hepatocyte solution containing 2×10^6 cells/mL in HI maintenance media. Samples were taken at 0 minutes (T0) and 120 minutes (T120) by quenching the reaction with 1200 μL acetonitrile. After quenching, the samples were sonicated for 2 minutes and then centrifuged at 1400 rpm for 5 minutes. A 1400-μL aliquot of the supernatant was evaporated under a stream of N2 until dry. The dried extracts were then reconstituted with 200 μL acetonitrile: H2O (1:3 v/v), vortexed for 2 minutes and centrifuged at 14000 rpm for 5 minutes. A 2-μL aliquot of the supernatant was injected onto a Xevo UPLC-UV-G2-S Q-Tof system (Waters®) with positive-ion electrospray ionization for analysis. Chromatographic separation was achieved on an Acquity UPLC®BEH C18 column (2.1×50 mm, 1.7 μm; Waters®) by gradient elution using varying proportions of mobile phase A (H2O with 0.1% formic acid) and mobile phase B (acetonitrile with 0.1% formic acid) at a constant flow rate of 400 μL/minute over a total run time of 10 minutes. LC-UV-MS extract ion chromatograms (EIC) of the T120 samples were compared to the T0 samples to identify the major putative metabolites which were named as Mm/z.

[1] = system: rat, dog, minipig, monkey, and human hepatocytes; experiment: In vitro metabolite profile in hepatocytes, summary across species; assay type: in vitro ADME; settings: hepatocytes from rat, 10 μM, 120 min
Description: as §1, with “Chromatographic separation was achieved on an Acquity UPLC®BEH C18 column (2.1×50 mm, 1.7 μm; Waters®) by gradient elution using varying proportions of mobile phase A (H2O with 0.1% formic acid) and mobile phase B (acetonitrile with 0.1% formic acid) at a constant flow rate of 400 μL/minute over a total run time of 10 minutes. LC-UV-MS extract ion chromatograms (EIC) of the T120 samples were compared to the T0 samples to identify the major putative metabolites which were named as Mm/z.” left out

[2] = 120 min, relative to parent at T0

Row | UV % at 280-290 nm or observed (+ or --), metabolite M387 (O-dealkylation) (human hepatocytes; [2]) | UV % at 280-290 nm or observed (+ or --), metabolite M530b (Hydroxylation) (human hepatocytes; [2]) | UV % at 280-290 nm or observed (+ or --), metabolite M530c (Hydroxylation) (human hepatocytes; [2]) | UV % at 280-290 nm or observed (+ or --), metabolite M530e (Hydroxylation) (human hepatocytes; [2]) | UV % at 280-290 nm or observed (+ or --), metabolite M563 (O-dealkylation + Glucuronidation) (human hepatocytes; [2]) | UV % at 280-290 nm or observed (+ or --), metabolite M530d (Hydroxylation) (human hepatocytes; [2]) | UV % at 280-290 nm, Parent-T120 min (human hepatocytes; [2]) | UV % at 280-290 nm, Parent-T0 min (human hepatocytes) | UV % at 280-290 nm or observed (+ or --), metabolite M532b (Hydroxylation) (human hepatocytes; [2]) | UV % at 280-290 nm or observed (+ or --), metabolite M532e (Hydroxylation) (human hepatocytes; [2]) | total number of metabolites formed [1] | Structure (SMILES)
1 | 3.5% | + | 1.3% | + | -- | 1.5% | 84.8% | 100.0% |  |  |  | Cc1cnc(-c2ccnc(C(C)(C)O)n2)cc1-n1c(C)cc(OCc2ncc(F)cc2F)c(Cl)c1=O (atropisomer, axis not shown; (P)) [Example 1-H2, (P)-3-chloro-4-((3,5-difluoropyridin-2-yl)methoxy)-2′-(2-(2-hydroxypropan-2-yl)pyrimidin-4-yl)-5′,6-dimethyl-2H-[1,4′-bipyridin]-2-one]
2 | + |  |  |  |  |  | 88.2% | 100.0% | + | + | 5 | [2H]C([2H])(Oc1cc(C)n(-c2cc(-c3ccnc(C(C)(C)O)n3)ncc2C)c(=O)c1Cl)c1ncc(F)cc1F (single isomer, unassigned) [Example 1-D2, (P)-3-Chloro-4-((3,5-difluoropyridin-2-yl)methoxy-d2)-2′-(2-(2-hydroxypropan-2-yl)pyrimidin-4-yl)-5′,6-dimethyl-2H-[1,4′-bipyridin]-2-one]
